Assay in all cases: Kinase panel (140 human kinases)
Assay type in all cases: biochemical

Assay [1] addresses IR (Homo sapiens, UniProt P06213). Put shortly: (§1)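 Single-point profiling at 0.1 μM; BAY-3827 also at 1 μM. ^33P-ATP radiometric filter-binding format, duplicates. ATP 5/20/50 μM (≤ Km for each enzyme). Readout: % residual activity, mean ± SD.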
The target of assay [2] is MARK1 (Homo sapiens, UniProt Q9P0L2). An outline of the steps:
as §1

Assay [3] concerns the target MNK2 (Homo sapiens, UniProt Q9HBH9). Put shortly:
as §1

Assay [4] deals with PKCz (Homo sapiens, UniProt Q05513). Put shortly:
as §1

Assay [5] concerns the target RSK1 (Homo sapiens, UniProt Q15418). Put shortly: as §1
The target in assay [6] is SIK2 (Homo sapiens, UniProt Q9H0K1). Put shortly: as §1
The target in assay [7] is T1, TBK1 (Homo sapiens, UniProt Q9UHD2).
T1 sequence (Q9UHD2 1-729): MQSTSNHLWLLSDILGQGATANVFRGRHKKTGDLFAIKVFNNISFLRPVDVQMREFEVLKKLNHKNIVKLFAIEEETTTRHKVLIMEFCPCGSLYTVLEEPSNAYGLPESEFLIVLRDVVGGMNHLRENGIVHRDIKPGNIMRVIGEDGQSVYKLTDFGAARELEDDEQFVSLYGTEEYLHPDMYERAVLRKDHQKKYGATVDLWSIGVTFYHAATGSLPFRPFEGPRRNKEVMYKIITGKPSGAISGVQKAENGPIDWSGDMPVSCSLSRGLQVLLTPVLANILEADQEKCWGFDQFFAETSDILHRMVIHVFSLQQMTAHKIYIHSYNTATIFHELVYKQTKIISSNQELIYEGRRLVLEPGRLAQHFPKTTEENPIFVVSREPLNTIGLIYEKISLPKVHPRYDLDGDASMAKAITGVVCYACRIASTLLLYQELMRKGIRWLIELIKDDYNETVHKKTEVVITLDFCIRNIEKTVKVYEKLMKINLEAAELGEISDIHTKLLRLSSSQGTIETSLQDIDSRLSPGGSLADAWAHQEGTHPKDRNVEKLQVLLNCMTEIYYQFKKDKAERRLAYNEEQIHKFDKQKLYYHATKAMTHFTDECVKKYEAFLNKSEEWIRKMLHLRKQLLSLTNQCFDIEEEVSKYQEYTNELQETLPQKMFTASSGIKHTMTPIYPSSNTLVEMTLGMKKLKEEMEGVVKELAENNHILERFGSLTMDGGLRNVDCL
An outline of the steps: as §1

The target in assay [8] is YES1 (Homo sapiens, UniProt P07947). Put shortly: as §1

Molecules are shown by their SMILES.

Sequence of RSK1 (Q15418 whole entry): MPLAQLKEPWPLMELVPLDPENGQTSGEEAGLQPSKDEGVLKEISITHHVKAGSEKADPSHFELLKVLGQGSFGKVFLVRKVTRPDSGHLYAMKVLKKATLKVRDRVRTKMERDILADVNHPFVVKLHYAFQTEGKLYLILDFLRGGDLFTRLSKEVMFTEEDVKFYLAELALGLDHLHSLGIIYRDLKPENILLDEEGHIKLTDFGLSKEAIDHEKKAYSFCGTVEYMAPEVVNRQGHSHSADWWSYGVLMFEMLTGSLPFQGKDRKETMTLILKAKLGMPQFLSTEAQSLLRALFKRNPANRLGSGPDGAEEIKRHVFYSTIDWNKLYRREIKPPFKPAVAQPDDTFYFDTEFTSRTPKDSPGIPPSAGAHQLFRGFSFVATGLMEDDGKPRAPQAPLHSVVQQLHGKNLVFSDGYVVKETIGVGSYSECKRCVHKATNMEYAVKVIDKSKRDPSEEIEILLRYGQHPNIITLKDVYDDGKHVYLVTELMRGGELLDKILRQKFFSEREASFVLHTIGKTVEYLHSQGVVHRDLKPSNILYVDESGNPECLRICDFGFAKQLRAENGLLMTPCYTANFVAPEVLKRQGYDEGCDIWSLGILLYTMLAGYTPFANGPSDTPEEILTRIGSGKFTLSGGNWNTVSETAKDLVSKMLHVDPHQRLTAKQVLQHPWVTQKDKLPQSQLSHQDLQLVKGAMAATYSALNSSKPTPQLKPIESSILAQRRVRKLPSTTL
Sequence of IR (P06213 28-1382): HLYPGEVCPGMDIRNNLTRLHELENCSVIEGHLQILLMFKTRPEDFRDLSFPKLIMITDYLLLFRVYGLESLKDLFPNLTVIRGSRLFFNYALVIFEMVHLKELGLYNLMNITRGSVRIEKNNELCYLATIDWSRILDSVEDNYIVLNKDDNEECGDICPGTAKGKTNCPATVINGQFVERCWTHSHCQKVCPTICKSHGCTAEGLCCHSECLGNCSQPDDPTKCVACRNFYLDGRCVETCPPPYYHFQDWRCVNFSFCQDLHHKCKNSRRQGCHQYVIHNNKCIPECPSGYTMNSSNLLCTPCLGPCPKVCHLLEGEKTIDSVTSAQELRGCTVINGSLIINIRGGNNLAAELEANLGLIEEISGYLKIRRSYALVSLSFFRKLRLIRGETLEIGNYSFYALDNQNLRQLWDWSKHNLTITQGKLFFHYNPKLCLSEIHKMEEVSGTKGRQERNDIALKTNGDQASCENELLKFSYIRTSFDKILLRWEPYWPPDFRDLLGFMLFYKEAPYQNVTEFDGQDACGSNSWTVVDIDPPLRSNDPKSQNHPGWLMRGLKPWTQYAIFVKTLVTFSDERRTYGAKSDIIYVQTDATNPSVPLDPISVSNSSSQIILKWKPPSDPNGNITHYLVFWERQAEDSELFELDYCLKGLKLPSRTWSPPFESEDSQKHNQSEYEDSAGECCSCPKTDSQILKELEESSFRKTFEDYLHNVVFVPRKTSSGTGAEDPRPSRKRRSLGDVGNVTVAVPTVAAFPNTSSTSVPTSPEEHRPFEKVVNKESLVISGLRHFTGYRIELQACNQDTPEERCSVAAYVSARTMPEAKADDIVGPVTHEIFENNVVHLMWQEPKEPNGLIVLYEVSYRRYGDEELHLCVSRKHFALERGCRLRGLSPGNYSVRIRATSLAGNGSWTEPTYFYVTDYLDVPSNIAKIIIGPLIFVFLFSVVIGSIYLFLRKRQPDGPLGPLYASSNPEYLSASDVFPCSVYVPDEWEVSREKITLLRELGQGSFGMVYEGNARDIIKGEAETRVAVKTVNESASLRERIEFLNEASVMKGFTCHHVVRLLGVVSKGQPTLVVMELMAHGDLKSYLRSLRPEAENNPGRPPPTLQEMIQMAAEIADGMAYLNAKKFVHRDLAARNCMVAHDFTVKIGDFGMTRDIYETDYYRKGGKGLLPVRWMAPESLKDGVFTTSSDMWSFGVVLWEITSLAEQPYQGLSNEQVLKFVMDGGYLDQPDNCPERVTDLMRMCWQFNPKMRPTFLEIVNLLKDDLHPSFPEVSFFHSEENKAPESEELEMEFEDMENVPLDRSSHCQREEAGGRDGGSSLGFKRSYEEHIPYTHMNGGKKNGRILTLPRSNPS
Sequence of YES1 (P07947 whole entry): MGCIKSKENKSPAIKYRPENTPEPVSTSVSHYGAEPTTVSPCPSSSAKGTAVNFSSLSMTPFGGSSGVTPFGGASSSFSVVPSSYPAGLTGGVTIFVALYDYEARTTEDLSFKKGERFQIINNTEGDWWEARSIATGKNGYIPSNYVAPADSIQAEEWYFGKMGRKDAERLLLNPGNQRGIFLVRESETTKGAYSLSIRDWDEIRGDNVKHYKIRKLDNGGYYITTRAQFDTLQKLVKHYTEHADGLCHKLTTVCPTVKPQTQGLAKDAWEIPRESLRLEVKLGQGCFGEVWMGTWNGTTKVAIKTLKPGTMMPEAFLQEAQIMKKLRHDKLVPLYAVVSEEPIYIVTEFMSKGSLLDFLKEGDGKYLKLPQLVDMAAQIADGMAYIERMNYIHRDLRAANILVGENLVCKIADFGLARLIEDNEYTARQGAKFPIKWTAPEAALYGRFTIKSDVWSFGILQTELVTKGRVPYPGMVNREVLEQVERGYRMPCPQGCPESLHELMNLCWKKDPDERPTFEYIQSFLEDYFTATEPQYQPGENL
Sequence of SIK2 (Q9H0K1 whole entry): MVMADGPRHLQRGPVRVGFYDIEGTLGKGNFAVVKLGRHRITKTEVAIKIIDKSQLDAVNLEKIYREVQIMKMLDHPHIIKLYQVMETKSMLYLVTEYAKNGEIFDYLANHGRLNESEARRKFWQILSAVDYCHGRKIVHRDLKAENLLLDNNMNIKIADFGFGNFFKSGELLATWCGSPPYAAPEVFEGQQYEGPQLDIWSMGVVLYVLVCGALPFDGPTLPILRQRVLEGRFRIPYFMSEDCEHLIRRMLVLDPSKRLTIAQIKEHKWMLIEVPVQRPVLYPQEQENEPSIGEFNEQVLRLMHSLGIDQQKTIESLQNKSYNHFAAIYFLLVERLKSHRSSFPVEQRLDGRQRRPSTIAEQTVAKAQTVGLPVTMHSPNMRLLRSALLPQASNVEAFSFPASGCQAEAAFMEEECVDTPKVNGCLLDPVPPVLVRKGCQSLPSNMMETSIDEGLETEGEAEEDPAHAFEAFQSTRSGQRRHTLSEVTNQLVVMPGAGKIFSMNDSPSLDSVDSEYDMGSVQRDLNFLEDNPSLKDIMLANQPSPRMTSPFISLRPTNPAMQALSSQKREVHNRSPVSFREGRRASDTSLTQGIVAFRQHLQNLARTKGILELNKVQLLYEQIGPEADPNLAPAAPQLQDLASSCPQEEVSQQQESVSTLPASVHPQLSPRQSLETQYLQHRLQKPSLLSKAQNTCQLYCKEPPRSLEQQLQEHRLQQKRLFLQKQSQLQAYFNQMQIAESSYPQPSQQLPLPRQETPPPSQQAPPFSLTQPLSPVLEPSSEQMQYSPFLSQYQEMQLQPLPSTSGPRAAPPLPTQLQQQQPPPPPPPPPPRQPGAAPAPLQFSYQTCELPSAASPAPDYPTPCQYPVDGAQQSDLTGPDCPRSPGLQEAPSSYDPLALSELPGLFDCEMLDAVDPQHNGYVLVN
Sequence of MARK1 (Q9P0L2 whole entry): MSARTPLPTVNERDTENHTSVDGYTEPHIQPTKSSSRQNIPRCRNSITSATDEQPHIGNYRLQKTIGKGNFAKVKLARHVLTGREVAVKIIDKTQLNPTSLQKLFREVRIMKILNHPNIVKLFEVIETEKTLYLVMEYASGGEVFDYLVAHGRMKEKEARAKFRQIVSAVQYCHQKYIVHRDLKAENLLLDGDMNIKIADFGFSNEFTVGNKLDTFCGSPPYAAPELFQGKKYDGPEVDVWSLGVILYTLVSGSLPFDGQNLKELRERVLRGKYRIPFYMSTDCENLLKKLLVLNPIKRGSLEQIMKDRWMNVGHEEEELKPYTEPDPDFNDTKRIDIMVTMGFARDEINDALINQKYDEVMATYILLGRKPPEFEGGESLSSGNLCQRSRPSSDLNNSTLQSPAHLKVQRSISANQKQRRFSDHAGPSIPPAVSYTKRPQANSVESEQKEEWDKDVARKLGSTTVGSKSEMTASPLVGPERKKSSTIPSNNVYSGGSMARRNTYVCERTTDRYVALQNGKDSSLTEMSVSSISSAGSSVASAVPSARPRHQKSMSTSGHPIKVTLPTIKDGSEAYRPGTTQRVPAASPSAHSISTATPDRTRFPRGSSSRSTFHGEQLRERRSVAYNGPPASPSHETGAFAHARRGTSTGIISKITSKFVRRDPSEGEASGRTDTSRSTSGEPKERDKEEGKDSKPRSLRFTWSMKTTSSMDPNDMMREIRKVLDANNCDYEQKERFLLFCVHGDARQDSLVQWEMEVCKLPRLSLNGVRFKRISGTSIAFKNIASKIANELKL
Sequence of MNK2 (Q9HBH9 whole entry): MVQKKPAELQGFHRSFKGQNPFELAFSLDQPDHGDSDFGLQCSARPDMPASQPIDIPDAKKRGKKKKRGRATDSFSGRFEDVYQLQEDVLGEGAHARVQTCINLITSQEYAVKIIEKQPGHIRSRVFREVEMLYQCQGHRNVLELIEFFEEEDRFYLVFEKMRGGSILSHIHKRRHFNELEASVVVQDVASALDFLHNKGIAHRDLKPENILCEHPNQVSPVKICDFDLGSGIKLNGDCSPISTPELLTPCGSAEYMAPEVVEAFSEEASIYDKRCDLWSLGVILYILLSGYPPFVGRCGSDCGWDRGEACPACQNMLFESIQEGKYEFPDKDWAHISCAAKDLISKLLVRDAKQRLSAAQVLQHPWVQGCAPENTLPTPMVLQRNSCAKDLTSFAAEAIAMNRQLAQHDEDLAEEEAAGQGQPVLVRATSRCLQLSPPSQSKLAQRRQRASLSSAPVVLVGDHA

Take `CC1=C(C#N)C(c2ccc3c(c2)c(NC(=O)c2ccccc2C)nn3C)C(C#N)=C(C)N1` [BAY-974, N-[5-(3,5-dicyano-2,6-dimethyl-1,4-dihydropyridin-4-yl)-1-methylindazol-3-yl]-2-methylbenzamide]: the remaining activity at 0.1 µM in assay [1] worked out at 81%; in assay [2] it was 93%; in assay [3] it was 98%; in assay [4] it was 103%; in assay [5] (0.1 μM), 66%; in assay [6] it was 88%. Moreover, the values for the remaining activity at 0.1 µM in assay [7] and in assay [8] were 91% and not above 50%, respectively. For the same compound, in assay [8], the inhibition at 0.1 µM was in the range of 55 to 90%.

Take `CCc1ccccc1C(=O)Nc1n[nH]c2c(C)c(F)c(C3C(C#N)=C(C)N(C)C(C)=C3C#N)cc12` [BAY-3827, N-[5-(3,5-dicyano-1,2,6-trimethyl-4H-pyridin-4-yl)-6-fluoro-7-methyl-1H-indazol-3-yl]-2-ethylbenzamide]: the remaining activity at 0.1 µM in assay [1] is 102%; in assay [2], 82%; in assay [3] it was 99%; in assay [4], 112%; in assay [6] it was 107%; in assay [7] it was not above 50%. Further, the remaining activity at 0.1 µM in assay [8] stood at 98%. The remaining activity at 1 µM in assay [1] (1 μM, INSR, cross-referenced with screen data of ref 37, read-out: activity remaining after treatment) is not below 99%; in assay [5] (1 μM, cross-referenced with screen data of ref 37, read-out: activity remaining after treatment) it was not above 50%. Besides, the inhibition at 0.1 µM is 80 to 85% in assay [5] (0.1 μM) and approximately 60% in assay [7].

As a reminder, the remaining activity is the signal under treatment as a percentage of the control signal. One may read the inhibition as the change of the read-out against control, counted positive when it falls.

(Values after PMC12372887, “Mechanism and cellular actions of the potent AMPK inhibitor BAY-3827” (Science Advances, 2025).)
